Assay results from the supplement of paper PMC8882468.
± gives the standard deviation of the averaged measurements.

Each molecule was assayed on HCI-005.E2 (organoid from a breast cancer xenograft with a HER2-positive history) (assay: CTG-3D luminescence at 96 h relative to day-0 seeding control (ratio to day 0); higher = more growth / less cytotoxicity; PDxO 3D drug screen, 96 h, CTG-3D normalised to day-0 seeding control.). Conditions: 625 fM.

SMILES | CTG-3D luminescence at 96 h
NC(=O)c1cccc2cn(-c3ccc([C@@H]4CCCNC4)cc3)nc12 [niraparib] | 1.35 ± 0.13
Cc1cc(Nc2ncnc3ccc(NC4=NC(C)(C)CO4)cc23)ccc1Oc1ccn2ncnc2c1 [tucatinib] | 2.09 ± 0.49
CCN(c1cc(C#CCN2CCOCC2)cc(C(=O)NCc2c(C)cc(C)[nH]c2=O)c1C)[C@H]1CC[C@H](N(C)CCOC)CC1 | 1.34 ± 0.22

What follows are molecules tested on HCI-024 (organoid from a breast cancer xenograft) in the same assay as above. Conditions: 12.5 pM; days in culture: 105.

SMILES | CTG-3D luminescence at 96 h
NC1(C(=O)N[C@@H](CCO)c2ccc(Cl)cc2)CCN(c2nc[nH]c3nccc2-3)CC1 [capivasertib] | 1.73
CC(C)n1nc(-c2ccc3oc(N)nc3c2)c2c(N)ncnc21 [sapanisertib] | 1.5
O=C(c1ccc(F)c(F)c1Nc1ccc(I)cc1F)N1CC(O)([C@@H]2CCCCN2)C1 [cobimetinib] | 1.71
C[C@H](NC(=O)CCC(F)(F)F)C(=O)N[C@@H]1C(=O)N(CCO)c2ncccc2-c2ccccc21 [crenigacestat] | 1.19
Cc1cc(Nc2ncc(Cl)c(Nc3ccccc3S(=O)(=O)C(C)C)n2)c(OC(C)C)cc1C1CCNCC1 [ceritinib] | 1.05
CS(=O)(=O)c1ccc(C(=O)Nc2ccc(Cl)c(-c3ccccn3)c2)c(Cl)c1 [vismodegib] | 1.78
NC(=O)c1cccc2cn(-c3ccc([C@@H]4CCCNC4)cc3)nc12 [niraparib] | 1.48
Cc1cc(Nc2ncnc3ccc(NC4=NC(C)(C)CO4)cc23)ccc1Oc1ccn2ncnc2c1 [tucatinib] | 1.67
CCN(c1cc(C#CCN2CCOCC2)cc(C(=O)NCc2c(C)cc(C)[nH]c2=O)c1C)[C@H]1CC[C@H](N(C)CCOC)CC1 | 1.44

Same assay, conditions: 12.5 pM; days in culture: 122

SMILES | CTG-3D luminescence at 96 h
NC1(C(=O)N[C@@H](CCO)c2ccc(Cl)cc2)CCN(c2nc[nH]c3nccc2-3)CC1 [capivasertib] | 2.22
CC(C)n1nc(-c2ccc3oc(N)nc3c2)c2c(N)ncnc21 [sapanisertib] | 2.28
O=C(c1ccc(F)c(F)c1Nc1ccc(I)cc1F)N1CC(O)([C@@H]2CCCCN2)C1 [cobimetinib] | 2.66
C[C@H](NC(=O)CCC(F)(F)F)C(=O)N[C@@H]1C(=O)N(CCO)c2ncccc2-c2ccccc21 [crenigacestat] | 1.95
Cc1cc(Nc2ncc(Cl)c(Nc3ccccc3S(=O)(=O)C(C)C)n2)c(OC(C)C)cc1C1CCNCC1 [ceritinib] | 1.49
CS(=O)(=O)c1ccc(C(=O)Nc2ccc(Cl)c(-c3ccccn3)c2)c(Cl)c1 [vismodegib] | 1.39
NC(=O)c1cccc2cn(-c3ccc([C@@H]4CCCNC4)cc3)nc12 [niraparib] | 2.12
Cc1cc(Nc2ncnc3ccc(NC4=NC(C)(C)CO4)cc23)ccc1Oc1ccn2ncnc2c1 [tucatinib] | 1.99
CCN(c1cc(C#CCN2CCOCC2)cc(C(=O)NCc2c(C)cc(C)[nH]c2=O)c1C)[C@H]1CC[C@H](N(C)CCOC)CC1 | 1.71

Same assay, conditions: 12.5 pM; days in culture: 163

SMILES | CTG-3D luminescence at 96 h
NC1(C(=O)N[C@@H](CCO)c2ccc(Cl)cc2)CCN(c2nc[nH]c3nccc2-3)CC1 [capivasertib] | 2.16
CC(C)n1nc(-c2ccc3oc(N)nc3c2)c2c(N)ncnc21 [sapanisertib] | 2.15
O=C(c1ccc(F)c(F)c1Nc1ccc(I)cc1F)N1CC(O)([C@@H]2CCCCN2)C1 [cobimetinib] | 1.51
C[C@H](NC(=O)CCC(F)(F)F)C(=O)N[C@@H]1C(=O)N(CCO)c2ncccc2-c2ccccc21 [crenigacestat] | 1.93
Cc1cc(Nc2ncc(Cl)c(Nc3ccccc3S(=O)(=O)C(C)C)n2)c(OC(C)C)cc1C1CCNCC1 [ceritinib] | 2.38
CS(=O)(=O)c1ccc(C(=O)Nc2ccc(Cl)c(-c3ccccn3)c2)c(Cl)c1 [vismodegib] | 1.93
NC(=O)c1cccc2cn(-c3ccc([C@@H]4CCCNC4)cc3)nc12 [niraparib] | 1.73
Cc1cc(Nc2ncnc3ccc(NC4=NC(C)(C)CO4)cc23)ccc1Oc1ccn2ncnc2c1 [tucatinib] | 1.68
CCN(c1cc(C#CCN2CCOCC2)cc(C(=O)NCc2c(C)cc(C)[nH]c2=O)c1C)[C@H]1CC[C@H](N(C)CCOC)CC1 | 1.65

Same assay, conditions: 0.00025 µM; days in culture: 105

SMILES | CTG-3D luminescence at 96 h
NC1(C(=O)N[C@@H](CCO)c2ccc(Cl)cc2)CCN(c2nc[nH]c3nccc2-3)CC1 [capivasertib] | 1.84
CC(C)n1nc(-c2ccc3oc(N)nc3c2)c2c(N)ncnc21 [sapanisertib] | 1.82
O=C(c1ccc(F)c(F)c1Nc1ccc(I)cc1F)N1CC(O)([C@@H]2CCCCN2)C1 [cobimetinib] | 1.74
C[C@H](NC(=O)CCC(F)(F)F)C(=O)N[C@@H]1C(=O)N(CCO)c2ncccc2-c2ccccc21 [crenigacestat] | 1.65
Cc1cc(Nc2ncc(Cl)c(Nc3ccccc3S(=O)(=O)C(C)C)n2)c(OC(C)C)cc1C1CCNCC1 [ceritinib] | 1.3
CS(=O)(=O)c1ccc(C(=O)Nc2ccc(Cl)c(-c3ccccn3)c2)c(Cl)c1 [vismodegib] | 1.57
NC(=O)c1cccc2cn(-c3ccc([C@@H]4CCCNC4)cc3)nc12 [niraparib] | 1.61
Cc1cc(Nc2ncnc3ccc(NC4=NC(C)(C)CO4)cc23)ccc1Oc1ccn2ncnc2c1 [tucatinib] | 1.75
CCN(c1cc(C#CCN2CCOCC2)cc(C(=O)NCc2c(C)cc(C)[nH]c2=O)c1C)[C@H]1CC[C@H](N(C)CCOC)CC1 | 1.62

Same assay, conditions: 0.00025 µM; days in culture: 122

SMILES | CTG-3D luminescence at 96 h
NC1(C(=O)N[C@@H](CCO)c2ccc(Cl)cc2)CCN(c2nc[nH]c3nccc2-3)CC1 [capivasertib] | 2.39
CC(C)n1nc(-c2ccc3oc(N)nc3c2)c2c(N)ncnc21 [sapanisertib] | 2.85
O=C(c1ccc(F)c(F)c1Nc1ccc(I)cc1F)N1CC(O)([C@@H]2CCCCN2)C1 [cobimetinib] | 2.28
C[C@H](NC(=O)CCC(F)(F)F)C(=O)N[C@@H]1C(=O)N(CCO)c2ncccc2-c2ccccc21 [crenigacestat] | 1.76
Cc1cc(Nc2ncc(Cl)c(Nc3ccccc3S(=O)(=O)C(C)C)n2)c(OC(C)C)cc1C1CCNCC1 [ceritinib] | 2.05
CS(=O)(=O)c1ccc(C(=O)Nc2ccc(Cl)c(-c3ccccn3)c2)c(Cl)c1 [vismodegib] | 1.99
NC(=O)c1cccc2cn(-c3ccc([C@@H]4CCCNC4)cc3)nc12 [niraparib] | 2.38
Cc1cc(Nc2ncnc3ccc(NC4=NC(C)(C)CO4)cc23)ccc1Oc1ccn2ncnc2c1 [tucatinib] | 2.82
CCN(c1cc(C#CCN2CCOCC2)cc(C(=O)NCc2c(C)cc(C)[nH]c2=O)c1C)[C@H]1CC[C@H](N(C)CCOC)CC1 | 2.29

Same assay, conditions: 0.00025 µM; days in culture: 163

SMILES | CTG-3D luminescence at 96 h
NC1(C(=O)N[C@@H](CCO)c2ccc(Cl)cc2)CCN(c2nc[nH]c3nccc2-3)CC1 [capivasertib] | 1.74
CC(C)n1nc(-c2ccc3oc(N)nc3c2)c2c(N)ncnc21 [sapanisertib] | 1.91
O=C(c1ccc(F)c(F)c1Nc1ccc(I)cc1F)N1CC(O)([C@@H]2CCCCN2)C1 [cobimetinib] | 2.19
C[C@H](NC(=O)CCC(F)(F)F)C(=O)N[C@@H]1C(=O)N(CCO)c2ncccc2-c2ccccc21 [crenigacestat] | 2.2
Cc1cc(Nc2ncc(Cl)c(Nc3ccccc3S(=O)(=O)C(C)C)n2)c(OC(C)C)cc1C1CCNCC1 [ceritinib] | 2.03
CS(=O)(=O)c1ccc(C(=O)Nc2ccc(Cl)c(-c3ccccn3)c2)c(Cl)c1 [vismodegib] | 2.3
NC(=O)c1cccc2cn(-c3ccc([C@@H]4CCCNC4)cc3)nc12 [niraparib] | 1.86
Cc1cc(Nc2ncnc3ccc(NC4=NC(C)(C)CO4)cc23)ccc1Oc1ccn2ncnc2c1 [tucatinib] | 1.9
CCN(c1cc(C#CCN2CCOCC2)cc(C(=O)NCc2c(C)cc(C)[nH]c2=O)c1C)[C@H]1CC[C@H](N(C)CCOC)CC1 | 2.26

Same assay, conditions: 0.005 µM; days in culture: 105

SMILES | CTG-3D luminescence at 96 h
NC1(C(=O)N[C@@H](CCO)c2ccc(Cl)cc2)CCN(c2nc[nH]c3nccc2-3)CC1 [capivasertib] | 1.39
CC(C)n1nc(-c2ccc3oc(N)nc3c2)c2c(N)ncnc21 [sapanisertib] | 1.16
O=C(c1ccc(F)c(F)c1Nc1ccc(I)cc1F)N1CC(O)([C@@H]2CCCCN2)C1 [cobimetinib] | 1.38
C[C@H](NC(=O)CCC(F)(F)F)C(=O)N[C@@H]1C(=O)N(CCO)c2ncccc2-c2ccccc21 [crenigacestat] | 1.35
Cc1cc(Nc2ncc(Cl)c(Nc3ccccc3S(=O)(=O)C(C)C)n2)c(OC(C)C)cc1C1CCNCC1 [ceritinib] | 1.22
CS(=O)(=O)c1ccc(C(=O)Nc2ccc(Cl)c(-c3ccccn3)c2)c(Cl)c1 [vismodegib] | 1.53
NC(=O)c1cccc2cn(-c3ccc([C@@H]4CCCNC4)cc3)nc12 [niraparib] | 1.14
Cc1cc(Nc2ncnc3ccc(NC4=NC(C)(C)CO4)cc23)ccc1Oc1ccn2ncnc2c1 [tucatinib] | 1.37
CCN(c1cc(C#CCN2CCOCC2)cc(C(=O)NCc2c(C)cc(C)[nH]c2=O)c1C)[C@H]1CC[C@H](N(C)CCOC)CC1 | 1.27

Same assay, conditions: 0.005 µM; days in culture: 122

SMILES | CTG-3D luminescence at 96 h
NC1(C(=O)N[C@@H](CCO)c2ccc(Cl)cc2)CCN(c2nc[nH]c3nccc2-3)CC1 [capivasertib] | 1.78
CC(C)n1nc(-c2ccc3oc(N)nc3c2)c2c(N)ncnc21 [sapanisertib] | 1.86
O=C(c1ccc(F)c(F)c1Nc1ccc(I)cc1F)N1CC(O)([C@@H]2CCCCN2)C1 [cobimetinib] | 2.13
